According to the supplement of paper PMC10331698:
± gives the standard deviation of the averaged measurements.

Key:
Test in all cases: level (log10 ratio to DMSO vehicle control); higher = higher biomarker level / cell amount than vehicle control
Methotrexate = compound: CN(Cc1cnc2nc(N)nc(N)c2n1)c1ccc(C(=O)N[C@@H](CCC(=O)O)C(=O)O)cc1 [Methotrexate]; details: in DMSO
Method: (§1)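 BioMAP Diversity Plus panel of 12 human primary cell co-culture systems (3C, 4H, LPS, SAg, BT, BF4T, BE3C, CASM3C, HDF3CGF, KF3CT, MyoF, Mphg). Compounds were added 1 h before stimulation and left for 24 h (MyoF 48 h; BT 72 h for soluble read-outs or 6 d for IgG). Biomarkers were read by ELISA, cytotoxicity by SRB, PBMC viability and proliferation by Alamar Blue. Each well value was divided by the mean of 8 DMSO control wells on the same plate and log10 transformed; duplicate blinded samples were tested at 4 concentrations.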

[1] = compound: OCCCC(F)(F)C(F)(F)C(F)(F)C(F)(F)C(F)(F)C(F)(F)C(F)(F)C(F)(F)F [3-(Perfluorooctyl)propanol]; details: 6700 nM; in DMSO
Method: as §1

[2] = compound: O=C(CC(=O)C(F)(F)C(F)(F)C(F)(F)F)c1cccs1 [(Perfluorobutyryl)-2-thenoylmethane]; details: in DMSO
Method: as §1

[3] = compound: FC(F)(F)C(F)(F)C(F)(F)C(F)(F)CCI [1H,1H,2H,2H-Perfluorohexyl iodide]; details: in DMSO
Method: as §1

[4] = compound: FC(F)(F)COC(OCC(F)(F)F)OCC(F)(F)F [tris(Trifluoroethoxy)methane]; details: in DMSO
Method: as §1

[5] = compound: OCC(F)(F)C(F)(F)C(F)(F)C(F)(F)C(F)(F)C(F)(F)F [6:1 Fluorotelomer alcohol]; details: in DMSO
Method: as §1

[6] = compound: O=S(=O)(O)CCC(F)(F)C(F)(F)C(F)(F)C(F)(F)F [4:2 Fluorotelomer sulfonic acid]; details: in DMSO
Method: as §1

Row | Test System | level (log10) (Methotrexate; 1500 nM) | level (log10) (Methotrexate; 4400 nM) | level (log10) (Methotrexate; 13000 nM) | level (log10) (Methotrexate; 40000 nM) | level (log10) [1] | level (log10) ([2]; 6700 nM) | level (log10) ([2]; 20000 nM) | level (log10) ([3]; 6700 nM) | level (log10) ([3]; 20000 nM) | level (log10) ([3]; 60000 nM) | level (log10) ([4]; 6700 nM) | level (log10) ([4]; 20000 nM) | level (log10) ([4]; 60000 nM) | level (log10) ([5]; 6700 nM) | level (log10) ([5]; 20000 nM) | level (log10) ([5]; 60000 nM) | level (log10) ([6]; 6700 nM) | level (log10) ([6]; 20000 nM) | level (log10) ([6]; 60000 nM)
1 | SAg:PBMC Cytotoxicity | -0.001 ± 0.017 | 0.0015 ± 0.023 | 0.011 ± 0.018 | 0.0005 ± 0.0035 | -0.003 ± 0.023 | -0.0295 ± 0.019 | -0.058 ± 0.03 | 0.006 ± 0.03 | -0.0025 ± 0.03 | -0.093 ± 0.088 | -0.0115 ± 0.0078 | 0.01 ± 0.017 | 0.0135 ± 0.022 | -0.014 ± 0.013 | -0.014 ± 0.0099 | -0.0295 ± 0.073 | 0.0015 ± 0.013 | -0.007 ± 0.031 | 0.02 ± 0.0014
2 | SAg:CD69 | -0.001 ± 0.0085 | -0.033 ± 0.024 | -0.0185 ± 0.061 | -0.003 ± 0.04 | -0.036 ± 0.014 | -0.128 ± 0.02 | -0.166 ± 0.0085 | 0.0135 ± 0.015 | -0.003 ± 0.0014 | -0.0125 ± 0.005 | 0.022 ± 0.0042 | 0.0105 ± 0.011 | 0.0215 ± 0.0035 | -0.0215 ± 0.011 | -0.0205 ± 0.0092 | -0.0045 ± 0.0064 | -0.023 ± 0.027 | -0.0165 ± 0.028 | -0.028 ± 0.037
3 | BF4T:IL-1alpha | 0.0145 ± 0.00071 | -0.037 ± 0.0042 | -0.012 ± 0.031 | 0.0045 ± 0.0021 | -0.012 ± 0.0014 | -0.041 | -0.0615 ± 0.011 | 0.001 ± 0.0071 | 0.0085 ± 0.0092 | 0.019 ± 0.024 | -0.0065 ± 0.013 | -0.0115 ± 0.013 | 0.003 ± 0.0099 | -0.0005 ± 0.005 | 0.0035 ± 0.0021 | 0.0005 ± 0.011 | -0.0025 ± 0.015 | -0.013 ± 0.0028 | 0.0135 ± 0.029
4 | BF4T:SRB | -0.003 ± 0.017 | -0.0105 ± 0.0078 | -0.007 ± 0.0071 | 0.0045 ± 0.023 | -0.0075 ± 0.0021 | -0.023 ± 0.0085 | -0.057 ± 0.0042 | -0.009 ± 0.0028 | -0.0055 ± 0.005 | -0.0035 ± 0.0078 | -0.0065 ± 0.0064 | -0.0085 ± 0.00071 | -0.003 ± 0.014 | -0.0045 ± 0.0064 | -0.0045 ± 0.013 | -0.004 ± 0.023 | -0.012 ± 0.0042 | -0.0085 ± 0.0064 | -0.0075 ± 0.0064
5 | LPS:SRB | -0.0005 ± 0.013 | 0.001 | 0.0015 ± 0.00071 | 0.005 ± 0.011 | -0.033 ± 0.018 | -0.015 ± 0.014 | -0.117 ± 0.019 | 0.019 ± 0.023 | 0.0125 ± 0.035 | 0.007 ± 0.024 | -0.0065 ± 0.0021 | -0.0015 ± 0.011 | -0.0015 ± 0.0078 | -0.005 ± 0.0014 | -0.0105 ± 0.005 | -0.0005 ± 0.0092 | -0.0085 ± 0.0021 | -0.003 ± 0.0085 | -0.011 ± 0.018
6 | LPS:CD141/Thrombomodulin | 0.016 ± 0.03 | -0.0155 ± 0.036 | 0.0085 ± 0.015 | -0.0025 ± 0.023 | 0.092 ± 0.031 | -0.009 ± 0.042 | -0.0665 ± 0.077 | 0.0185 ± 0.023 | 0.011 ± 0.038 | -0.005 ± 0.027 | -0.042 ± 0.042 | -0.0385 ± 0.0078 | -0.0505 ± 0.0035 | -0.0225 ± 0.03 | -0.021 ± 0.051 | 0.002 ± 0.0057 | 0.0215 ± 0.039 | 0.0345 ± 0.044 | 0.0755 ± 0.032
7 | SAg:CD38 | 0.037 ± 0.0099 | -0.0175 ± 0.005 | 0.031 ± 0.0085 | 0.006 ± 0.028 | -0.017 ± 0.016 | -0.08 ± 0.055 | -0.223 ± 0.035 | 0.009 ± 0.021 | -0.007 ± 0.0071 | -0.005 ± 0.031 | -0.0135 ± 0.015 | -0.011 ± 0.0057 | -0.012 ± 0.02 | -0.0215 ± 0.088 | -0.0085 ± 0.12 | -0.018 ± 0.17 | -0.0135 ± 0.028 | -0.0415 ± 0.019 | -0.0245 ± 0.005
8 | LPS:CXCL8/IL-8 | -0.015 ± 0.0085 | -0.001 ± 0.013 | 0.0045 ± 0.0021 | 0.0055 ± 0.013 | -0.132 ± 0.014 | -0.0595 ± 0.032 | -0.033 ± 0.047 | 0.008 ± 0.034 | 0.021 ± 0.033 | 0.0375 ± 0.057 | -0.0245 ± 0.049 | -0.0285 ± 0.022 | 0.0315 ± 0.08 | 0.002 ± 0.011 | -0.007 ± 0.018 | 0.0235 ± 0.0021 | -0.0015 ± 0.097 | 0.027 ± 0.054 | 0.111 ± 0.018
9 | BE3C:CD54/ICAM-1 | 0.021 ± 0.014 | -0.002 ± 0.013 | 0.013 ± 0.031 | 0.0065 ± 0.035 | 0.023 ± 0.0071 | -0.0075 ± 0.0064 | -0.102 ± 0.0064 | 0.0035 ± 0.0035 | 0.004 ± 0.013 | 0.0105 ± 0.011 | 0.016 ± 0.027 | 0.006 ± 0.0099 | 0.0075 ± 0.0092 | 0.0055 ± 0.019 | -0.013 ± 0.016 | 0.0065 ± 0.0021 | -0.004 ± 0.0085 | -0.009 ± 0.014 | -0.0155 ± 0.0021
10 | 3C:HLA-DR | -0.014 ± 0.031 | -0.012 ± 0.038 | -0.013 ± 0.025 | -0.011 ± 0.03 | -0.03 ± 0.0028 | -0.093 ± 0.045 | -0.511 ± 0.026 | -0.0005 ± 0.029 | -0.035 ± 0.04 | -0.0305 ± 0.04 | 0.014 ± 0.013 | 0.0065 ± 0.012 | 0.0205 ± 0.0035 | 0.004 ± 0.011 | -0.003 ± 0.0028 | -0.0095 ± 0.0078 | -0.019 ± 0.0028 | -0.0095 ± 0.0078 | -0.005 ± 0.028
11 | LPS:IL-1alpha | -0.003 ± 0.024 | 0.003 ± 0.017 | 0.005 ± 0.031 | 0.0465 ± 0.077 | -0.267 ± 0.065 | -0.069 ± 0.034 | 0.109 ± 0.016 | -0.0045 ± 0.032 | -0.034 ± 0.047 | 0.051 ± 0.044 | -0.019 ± 0.014 | -0.015 ± 0.014 | -0.0095 ± 0.035 | -0.038 ± 0.03 | -0.015 ± 0.061 | -0.0105 ± 0.023 | -0.007 ± 0.035 | -0.001 ± 0.03 | 0.0035 ± 0.018
12 | BE3C:IL-1alpha | -0.012 ± 0.0085 | -0.0255 ± 0.023 | -0.0095 ± 0.054 | 0.007 ± 0.033 | 0.0155 ± 0.03 | -0.0165 ± 0.00071 | -0.19 ± 0.005 | 0.015 ± 0.017 | 0.024 ± 0.0042 | 0.045 ± 0.023 | 0.0075 ± 0.021 | -0.006 ± 0.021 | 0.021 ± 0.0057 | -0.019 ± 0.0014 | 0.008 ± 0.0014 | -0.0155 ± 0.04 | -0.011 ± 0.0014 | -0.011 ± 0.013 | 0.0045 ± 0.0092
13 | BF4T:CD106/VCAM-1 | 0.014 ± 0.024 | 0.0165 ± 0.029 | 0.0245 ± 0.016 | 0.0245 ± 0.011 | -0.014 ± 0.0099 | 0.0215 ± 0.052 | -0.236 ± 0.063 | -0.0245 ± 0.0021 | -0.044 ± 0.025 | -0.0065 ± 0.086 | -0.014 ± 0.0042 | -0.005 ± 0.023 | 0.003 ± 0.023 | 0.0075 ± 0.0021 | -0.007 ± 0.031 | -0.032 ± 0.0028 | -0.0045 ± 0.0078 | -0.018 ± 0.0028 | 0.0085 ± 0.046
14 | SAg:CCL2/MCP-1 | -0.0055 ± 0.12 | -0.037 ± 0.028 | -0.009 ± 0.024 | -0.0075 ± 0.05 | -0.0025 ± 0.021 | -0.06 ± 0.0042 | -0.146 ± 0.0014 | -0.0075 ± 0.015 | 0.004 ± 0.0014 | -0.015 ± 0.018 | -0.0215 ± 0.0035 | -0.0215 ± 0.0064 | 0.0105 ± 0.022 | -0.002 ± 0.0057 | -0.0085 ± 0.005 | 0.0175 ± 0.025 | 0.007 ± 0.0085 | 0.0185 ± 0.0035 | 0.0105 ± 0.013
15 | 4H:CD87/uPAR | 0.0245 ± 0.029 | -0.014 ± 0.031 | -0.0105 ± 0.033 | 0.0185 ± 0.03 | -0.0615 ± 0.025 | -0.006 ± 0.024 | 0.033 ± 0.0071 | -0.0115 ± 0.0021 | -0.0245 ± 0.022 | -0.0255 ± 0.0064 | 0.0405 ± 0.07 | 0.0305 ± 0.052 | 0.0185 ± 0.064 | -0.0195 ± 0.018 | 0.029 ± 0.011 | -0.175 ± 0.36 | 0.0185 ± 0.0078 | 0.003 ± 0.0085 | -0.031 ± 0.024
